This note sets out measurements from patent US20260049084A1, “ENPP1 MODULATORS AND PRODUCTS AND USES THEREOF” (Gossamer Bio Services, Inc., priority 2022, published 2026).

Experiment [1] concerns the target Recombinant human ENPP1 protein (Homo sapiens (Human), UniProt P22413). In words: ENPP1 cGAMP Biochemical Assay. Particulars: 0.5 nM ENPP1, 1000 nM 2′3′-cGAMP substrate, TR-FRET. The protocol:
ENPP1 cGAMP Biochemical Assay
Compounds were added to 384 well Proxiplate (PerkinElmer, Waltham MA) at 100 nl/well from DMSO stocks using Echo (Labcyte, San Jose CA). Recombinant human ENPP1 protein (R&D Systems, Minneapolis MN) was prepared in assay buffer (50 mM Tris pH7.5, 1 mM TCEP pH7.0, 2 mM MgCl2 and 0.005% Tween20) and added at 10 μl/well. The plate was sealed, centrifuged at 1000 rpm for 1 minute and incubated at room temperature for 30 minutes before 5 μl substrate 2′3′-cGAMP (R&D Systems, Minneapolis MN) in assay buffer was added to each well to a final concentration of 0.5 nM ENPP1 and 1000 nM 2′3′-cGAMP. The plate was sealed and centrifuged at 1000 rpm for 1 minute again. After incubation at 25° C. for 60 minutes, Terbium labelled AMP/GMP antibody and AMP/GMP HiLyte647 Tracer (BellBrook Labs, Fitchburg WI) in detection buffer (50 mM Tris pH7.5, 20 mM EDTA and 0.1% Prionex) were added to the reaction mixture to a final concentration of 2 nM (5 μl/well). The assay plate was incubated at room temperature for 120 minutes. TR-FRET signal was detected using Envision (PerkinElmer, Waltham MA).

Experiment [2] concerns the target Recombinant human ENPP3 protein (Homo sapiens (Human), UniProt O14638). In words: ENPP3 cGAMP Biochemical Assay. Particulars: 70.5 nM ENPP3, 120 μM 2′3′-cGAMP substrate, TR-FRET. As to the method:
ENPP3 cGAMP Biochemical Assay
Compounds were added to 384 well Proxiplate (PerkinElmer, Waltham MA) at 100 nl/well from DMSO stocks using Echo (Labcyte, San Jose CA). Recombinant human ENPP3 protein (Acro Biosystems, Newwark DE) was prepared in assay buffer (50 mM Tris pH7.5, 1 mM TCEP pH7.0, 2 mM MgCl2, 2 mM CaCl2), 2 mM ZnCl2 and 0.005% Tween20) and added at 2 μl/well. The plate was sealed, centrifuged at 1000 rpm for 1 minute and incubated at room temperature for 30 minutes before 2 μl substrate 2′3′-cGAMP (R&D Systems, Minneapolis MN) in assay buffer was added to each well to a final concentration of 70.5 nM ENPP3 and 120 μM 2′3′-cGAMP. The plate was sealed and centrifuged at 1000 rpm for 1 minute again. After incubation at 25° C. for 60 minutes, Terbium labelled AMP/GMP antibody and AMP/GMP HiLyte647 Tracer (BellBrook Labs, Fitchburg WI) in detection buffer (50 mM Tris pH7.5, 20 mM EDTA and 0.1% Prionex) were added to the reaction mixture to a final concentration of 475 nM and 3 nM respectively. The assay plate was incubated at room temperature for 120 minutes. TR-FRET signal was detected using Envision (PerkinElmer, Waltham MA).
A general note: In TR-FRET formats the signal depends on donor and acceptor labels being close together.

Chain of Recombinant human ENPP1 protein (P22413 whole entry): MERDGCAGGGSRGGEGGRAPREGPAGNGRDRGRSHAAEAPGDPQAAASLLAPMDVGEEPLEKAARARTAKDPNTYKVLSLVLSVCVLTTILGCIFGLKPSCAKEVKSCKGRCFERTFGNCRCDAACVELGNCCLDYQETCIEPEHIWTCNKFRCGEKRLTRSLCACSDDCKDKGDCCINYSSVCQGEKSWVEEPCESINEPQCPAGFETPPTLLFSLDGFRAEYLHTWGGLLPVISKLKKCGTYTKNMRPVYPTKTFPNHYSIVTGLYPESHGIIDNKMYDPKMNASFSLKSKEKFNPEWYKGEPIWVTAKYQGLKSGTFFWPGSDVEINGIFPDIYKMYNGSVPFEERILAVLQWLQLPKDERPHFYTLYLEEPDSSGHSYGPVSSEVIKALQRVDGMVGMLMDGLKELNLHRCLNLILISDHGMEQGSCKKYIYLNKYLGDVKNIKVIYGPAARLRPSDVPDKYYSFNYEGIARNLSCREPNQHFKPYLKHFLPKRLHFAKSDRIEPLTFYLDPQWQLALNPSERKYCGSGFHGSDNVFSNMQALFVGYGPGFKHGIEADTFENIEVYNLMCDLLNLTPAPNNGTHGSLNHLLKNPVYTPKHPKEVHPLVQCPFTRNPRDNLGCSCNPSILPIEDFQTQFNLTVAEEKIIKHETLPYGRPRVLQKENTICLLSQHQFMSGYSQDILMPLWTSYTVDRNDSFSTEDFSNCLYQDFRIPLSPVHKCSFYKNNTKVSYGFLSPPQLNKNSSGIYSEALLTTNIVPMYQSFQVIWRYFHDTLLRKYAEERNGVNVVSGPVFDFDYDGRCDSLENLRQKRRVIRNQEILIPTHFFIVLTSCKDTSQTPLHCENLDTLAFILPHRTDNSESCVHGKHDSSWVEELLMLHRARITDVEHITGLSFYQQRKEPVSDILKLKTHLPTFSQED
Chain of Recombinant human ENPP3 protein (O14638 whole entry): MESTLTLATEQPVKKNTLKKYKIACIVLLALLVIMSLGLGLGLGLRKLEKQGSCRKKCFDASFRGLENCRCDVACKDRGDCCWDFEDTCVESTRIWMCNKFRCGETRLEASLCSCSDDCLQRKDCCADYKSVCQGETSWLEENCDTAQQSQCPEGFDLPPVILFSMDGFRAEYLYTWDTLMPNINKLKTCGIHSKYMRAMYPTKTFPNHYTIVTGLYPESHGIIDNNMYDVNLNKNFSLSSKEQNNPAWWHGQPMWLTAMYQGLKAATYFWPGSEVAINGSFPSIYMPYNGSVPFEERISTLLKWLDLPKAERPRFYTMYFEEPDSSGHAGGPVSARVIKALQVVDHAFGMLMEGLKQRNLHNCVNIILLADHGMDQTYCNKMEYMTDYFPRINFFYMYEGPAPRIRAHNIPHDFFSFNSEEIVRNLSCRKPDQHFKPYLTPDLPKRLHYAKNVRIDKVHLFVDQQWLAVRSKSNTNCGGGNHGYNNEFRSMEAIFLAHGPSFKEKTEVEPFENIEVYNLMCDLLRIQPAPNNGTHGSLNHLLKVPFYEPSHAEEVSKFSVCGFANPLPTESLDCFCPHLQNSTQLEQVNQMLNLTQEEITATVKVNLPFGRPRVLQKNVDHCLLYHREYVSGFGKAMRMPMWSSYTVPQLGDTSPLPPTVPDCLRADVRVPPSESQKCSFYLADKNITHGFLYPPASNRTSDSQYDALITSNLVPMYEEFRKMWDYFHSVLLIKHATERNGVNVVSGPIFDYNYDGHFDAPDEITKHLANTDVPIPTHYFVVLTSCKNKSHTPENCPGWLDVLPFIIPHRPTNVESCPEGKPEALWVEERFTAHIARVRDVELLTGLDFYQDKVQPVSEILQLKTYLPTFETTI

In the case of `CCn1nc(Cl)c2c(NCc3ccc(S(=N)(=O)CC)cc3)ccnc21` (stereo not shown) [Compound 9K, (4-(((3-chloro-1-ethyl-1H-pyrazolo[3,4-b]pyridine-4-yl)amino)methyl)phenyl)(ethyl) (imino)-λ^6-sulfanone], the figures for the IC50 in experiment [1] and in experiment [2] were < 10 nM and 100 to 1000 nM, respectively. On the same counts, the results for `C#CCn1nc(Cl)c2c(NCc3ccc([S@](C)(=N)=O)cc3)ccnc21` [Compound 6A, (R)-(4-(((3-chloro-1-(prop-2-yn-1-yl)-1H-pyrazolo[3,4-b]pyridin-4-yl)amino)methyl)phenyl)(imino)(methyl)-λ^6-sulfanone] are 10 to 100 nM and ≥ 1000 nM. The matching figures for `CCn1ncc2c(Nc3ccc(S(N)(=O)=NCC4CC4)cc3)ccnc21` (stereo not shown) [Compound 5A, N′-(cyclopropylmethyl)-4-((1-ethyl-1H-pyrazolo [3,4-b]pyridin-4-yl)amino) benzenesulfonimidamide]: 10 to 100 nM and 100 to 1000 nM. On to `CCn1ncc2c(NCc3ccc(S(C)(=N)=O)cc3)ccnc21` (stereo not shown) [Compound 9E, (4-(((1-ethyl-1H-pyrazolo[3,4-b]pyridin-4-yl)amino)methyl)phenyl)(imino)(methyl)-λ6-sulfanone], for which the IC50 in experiment [1] and in experiment [2] was ≥ 1000 nM throughout. As for `CCn1nc(Cl)c2c(NCc3ccc(S(=N)(=O)CCOC)cc3)ccnc21` (stereo not shown) [Compound 9I, (4-(((3-chloro-1-ethyl-1H-pyrazolo[3,4-b]pyridin-4-yl)amino)methyl)phenyl)(imino)(2-methoxyethyl)-λ6-sulfanone], the IC50 (commonly the concentration at which inhibition is half-maximal) was < 10 nM in experiment [1] and 100 to 1000 nM in experiment [2]. The matching figures for `CCn1ncc2c(OCc3ccc(S(N)(=O)=NC)cc3)ccnc21` (stereo not shown) [Compound 7A, 4-(((1-ethyl-1H-pyrazolo[3,4-b]pyridin-4-yl)oxy)methyl)-N′-methylbenzenesulfonimidamide]: 100 to 1000 nM and ≥ 1000 nM. Turning to `CCn1nc(Cl)c2c(NCC3CCN([S@](C)(=N)=O)CC3)ccnc21` [Compound 13H, (S)-3-chloro-1-ethyl-N-((1-(S-methylsulfonimidoyl)piperidin-4-yl)methyl)-1H-pyrazolo[3,4-b]pyridin-4-amine], the IC50 in experiment [1] was 10 to 100 nM; in experiment [2], ≥ 1000 nM.

`CCn1ncc2c(Nc3ccc(S(N)(=O)=NC)cc3)ccnc21` (stereo not shown) [Compound 5B, 4-((1-ethyl-1H-pyrazolo[3,4-b]pyridin-4-yl)amino)-N′-methylbenzenesulfonimidamide]: the figures for the IC50 in experiment [1] and in experiment [2] were 10 to 100 nM and ≥ 1000 nM, respectively. Turning to `CCn1nc(Cl)c2c(Nc3ccc(S(N)(=O)=NC#N)cc3)ccnc21` (stereo not shown) [Compound 5G, 4-((3-chloro-1-ethyl-1H-pyrazolo[3,4-b]pyridin-4-yl)amino)-N′-cyanobenzenesulfonimidamide], the IC50 is 10 to 100 nM in experiment [1] and ≥ 1000 nM in experiment [2]. With `C#CCn1nc(Cl)c2c(NCc3ccc(S(C)(=N)=O)cc3)ccnc21` (stereo not shown) [Compound 9D, (4-(((3-chloro-1-(prop-2-yn-1-yl)-1H-pyrazolo[3,4-b]pyridin-4-yl)amino)methyl)phenyl)(imino)(methyl)-λ6-sulfanone], the figures for the 50% inhibitory concentration (IC50) in experiment [1] and in experiment [2] were < 10 nM and 10 to 100 nM, respectively.

Take `CS(=N)(=O)c1ccc(CNc2ccnc3c2c(Cl)nn3CC#N)cc1` (stereo not shown) [Compound 9F, 2-(3-chloro-4-((4-(S-methylsulfonimidoyl)benzyl)amino)-1H-pyrazolo[3,4-b]pyridin-1-yl)acetonitrile]: the IC50 in experiment [1] was < 10 nM; in experiment [2], 10 to 100 nM. The matching figures for `C#CCn1nc(Cl)c2c(N(C)Cc3ccc([S@@](C)(=N)=O)cc3)ccnc21` [Compound 9C, (S)-(4-(((3-chloro-1-(prop-2-yn-1-yl)-1H-pyrazolo[3,4-b]pyridin-4-yl)(methyl)amino)methyl)phenyl)(imino)(methyl)-λ^6-sulfanone]: < 10 nM and ≥ 1000 nM. For the compound `CS(=N)(=O)c1ccc(COc2ccnc3c2c(Cl)nn3CC#N)cc1` (stereo not shown) [Compound 8A, 2-(3-chloro-4-((4-(S-methylsulfonimidoyl)benzyl)oxy)-1H-pyrazolo[3,4-b]pyridin-1-yl) acetonitrile], the IC50 in experiment [1] is < 10 nM; in experiment [2] it was 100 to 1000 nM. Consider `C#CCn1nc(Cl)c2c(NCC3CCN([S@@](C)(=O)=NC#N)CC3)ccnc21` [Compound 14I, (S)-N-((4-(((3-chloro-1-(prop-2-yn-1-yl)-1H-pyrazolo[3,4-b]pyridin-4-yl)amino)methyl)piperidin-1-yl)(methyl)(oxo)-λ6-sulfaneylidene)cyanamide], for which the IC50 is < 10 nM in experiment [1] and ≥ 1000 nM in experiment [2].

For the compound `CCn1nc(Cl)c2c(NCc3ccc(S(N)(=O)=NCC(F)(F)F)cc3)ccnc21` (stereo not shown) [Compound 12E, 4-(((3-chloro-1-ethyl-1H-pyrazolo[3,4-b]pyridin-4-yl)amino)methyl)-N′-(2,2,2-trifluoroethyl) benzenesulfonimidamide], the IC50 is 10 to 100 nM in experiment [1] and ≥ 1000 nM in experiment [2]. The matching figures for `CN[S@@](=N)(=O)c1ccc(CNc2ccnc3c2c(Cl)nn3CC#N)cc1` [Compound 10F, (R)-4-(((3-chloro-1-(cyanomethyl)-1H-pyrazolo[3,4-b]pyridin-4-yl)amino)methyl)-N-methylbenzenesulfonimidamide]: 10 to 100 nM and ≥ 1000 nM.

Take `CN=S(C)(=O)c1ccc(CNc2ccnc3c2c(Cl)nn3CC#N)cc1` (stereo not shown) [Compound 10D, 2-(3-chloro-4-((4-(N,S-dimethylsulfonimidoyl)benzyl)amino)-1H-pyrazolo[3,4-b]pyridin-1-yl)acetonitrile]: the figures for the IC50 in experiment [1] and in experiment [2] were 100 to 1000 nM and ≥ 1000 nM, respectively. On the same counts, the results for `C#CCn1nc(Cl)c2c(NCc3ccc(S(N)(=O)=NC)cc3)ccnc21` (stereo not shown) [Compound 12A, 4-(((3-chloro-1-(prop-2-yn-1-yl)-1H-pyrazolo[3,4-b]pyridin-4-yl)amino)methyl)-N′-methylbenzenesulfonimidamide] are < 10 nM and 10 to 100 nM. The matching figures for `CCn1nc(Cl)c2c(NCc3ccc([S@@](C)(=N)=O)cc3)ccnc21` [Compound 9M, (S)-(4-(((3-chloro-1-ethyl-1H-pyrazolo[3,4-b]pyridin-4-yl)amino)methyl)phenyl)(imino) (methyl)-λ^6-sulfanone]: 10 to 100 nM and ≥ 1000 nM. Turning to `CCn1nc(Cl)c2c(NCC3CCN([S@](=N)(=O)CCOC)CC3)ccnc21` [Compound 14D, (S)-3-chloro-1-ethyl-N-((1-(2-methoxyethylsulfonimidoyl)piperidin-4-yl)methyl)-1H-pyrazolo[3,4-b]pyridin-4-amine], the IC50 was 10 to 100 nM in experiment [1] and ≥ 1000 nM in experiment [2].

Take `CN=[S@](N)(=O)N1CCC(CNc2ccnc3c2c(Cl)nn3CC#N)CC1` [Compound 15G, (S)-4-(((3-chloro-1-(cyanomethyl)-1H-pyrazolo[3,4-b]pyridin-4-yl)amino)methyl)-N′-methylpiperidine-1-sulfonimidamide]: in experiment [2], the IC50 lay within 100 to 1000 nM.

On to `CCn1ncc2c(NCC3CCN([S@@](C)(=N)=O)CC3)ccnc21` [Compound 14G, (R)-1-ethyl-N-((1-(S-methylsulfonimidoyl)piperidin-4-yl)methyl)-1H-pyrazolo[3,4-b]pyridine-4-amine], for which, in experiment [2], the IC50 was ≥ 1000 nM. On the same count and under the same terms, then `CCn1ncc2c(NCC3CCN([S@](C)(=N)=O)CC3)ccnc21` [Compound 14H, (S)-1-ethyl-N-((1-(S-methylsulfonimidoyl)piperidin-4-yl)methyl)-1H-pyrazolo[3,4-b]pyridin-4-amine], with ≥ 1000 nM.
